Where two headings read alike, the source gives them in different places. One block for each molecule: values may come before it.
Assays:
immobilized IL-2 = target: T1, immobilized IL-2 (Homo sapiens, UniProt P60568); experiment: Double ligand SPR on immobilized interleukin-2 (Examples 9-11); format: binding
T1 construct: made in house; host or cells: E. coli
Protocol: A CM5 sensor chip (Biacore-BR-1000-14) is docked in a Biacore 2000 SPR device and normalized using a standard Biacore protocol with 70% glycerol. The chip is next equilibrated in PBS for approximately 1 hr at a 20 μL/min flow rate. The dextran surface of the chip is activated through an NHS/EDC coupling. This coupling is done using an amine coupling kit (Biacore—BR-100-50) containing N-hydroxysuccinimide (NHS 11.5 mg/mL) and N-ethyl-N′-(3-dimethylaminopropyl) carbodiimide hydrochloride (EDC 75 mg/mL). First, the two reagents are mixed in a 1:1 ratio and then 35 μL of the mixture are injected at 5 μL/min. The chip is activated one flow cell at a time, and that flow cell is subsequently labeled with protein.
IL-2 is expressed in E. coli cells and purified using standard procedures. Protein is then concentrated to 100 μM and the buffer is exchanged to 100 mM MES pH 5.75 (Nap-5 column, Pierce). A sensorgram is then run over the activated flow cell at 2,L/min of PBS. The IL-2 solution is then injected at 2 μL/min for 10 min. After injection the change in RUs is measured by marking the RUs at t=0 and t=final and subtracting. This gives the total RU change, which is related to the total mass of protein successfully coupled to the CM5 surface. The total mass will later be used to determine stoichiometry of binding. This procedure is then repeated with another arbitrary protein to create a measure for nonspecific binding. The arbitrary protein is immobilized on an adjacent cell. […] The sensorgram is then altered to flow across all four cells on the CM5 chip at 5 μL/min PBS. A solution of 1 M ethanolamine hydrochloride-NaOH pH 8.5 (Amine coupling kit, Biacore-BR-100-50) is injected at 5 μL/min for 7 min. Proteins are immobilized at densities of 100-160 fmol/mm^2. The chip is equilibrated overnight in PBS+0.05% azide+2% DMSO at 20 μL/min.
In this experiment, variable concentrations of a compound are tested at a constant concentration of another compound. The compound held constant is 2c, for example (structure shown in Example 2). To determine appropriate constant concentrations for 2c, a compound titration is first performed. Dilution series of the compounds are typically performed to produce seven solutions having final compound concentrations of 30 mM, 10 mM, 3.3 mM, 1.1 mM, 0.37 mM, 0.12 mM, and 0.041 mM; an eighth solution is a DMSO-only baseline. The compounds are then diluted into PBS+0.05% azide to final concentrations of 300 μM, 100 μM, 33 μM, 11 μM, 3.7 μM, 1.2 μM, 0.41 μM. The compound solutions are injected from lowest concentration to highest at 40 μL/min for 1 min. The SPR software method includes a 1 min wash before injection, the injection and then a 3 min wash after the injection.
These dilution series are analyzed by BIAevaluation software version 3.0. Sensorgrams are plotted for compound binding to the IL-2 labeled cell of the chip. The sensorgrams are modified by subtracting the sensorgrams for the appropriate compound dilutions over cell 1 (a blank cell). This subtraction step removes any RU changes that might occur due to non-specific interactions between the compound and the chip itself or refractive changes in the buffer. Finally, the eight sensorgrams produced from the compound dilution series are zeroed at the average of their starting RUs. Then the sensorgram produced by injecting DMSO only is subtracted to reveal the final sensorgrams used to determine relative binding.
To determine KdSPR for the compound, the compound concentration is plotted on the X-axis, while the fraction bound at the plateau of the injection is plotted on the Y-axis. The curve is then analyzed via non-linear regression analysis (Kaleidagraph, Synergy Software). […] The concentration chosen is where the RUs remain constant at the top of the binding curve and thus the IL-2:2c ratio is 1. For 2c, this concentration is 100 μM.
A second compound is then run, this time in both the presence and absence of 2c. […]

[1] = target: T2, human interleukin-1 receptor type 1 (Homo sapiens, UniProt P14778); experiment: SPR inhibition of binding of soluble IL-1 R to an immobilized peptide ligand (Examples 12-13); conditions: for IC50: inhibition of binding of IL-1 R to the immobilized peptide […]
T2 construct: soluble human II-1 R was allowed to flow over the surface; made in house; host or cells: baculovirus-infected TN-5B1-4 insect cells (High Five)
T2 sequence (P14778 18-336 limits assumed): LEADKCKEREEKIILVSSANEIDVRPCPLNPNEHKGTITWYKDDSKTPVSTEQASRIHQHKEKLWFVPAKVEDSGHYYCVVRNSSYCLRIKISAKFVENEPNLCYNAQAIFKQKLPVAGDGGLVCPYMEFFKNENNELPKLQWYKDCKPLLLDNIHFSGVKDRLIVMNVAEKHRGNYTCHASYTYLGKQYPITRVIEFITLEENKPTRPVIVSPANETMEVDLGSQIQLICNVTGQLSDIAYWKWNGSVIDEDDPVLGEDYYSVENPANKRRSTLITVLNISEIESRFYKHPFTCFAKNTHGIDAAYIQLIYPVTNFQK
Protocol: A CM5 sensor chip (Biacore-BR-1000-14) is docked in a Biacore 2000 SPR device. The chip is then normalized using standard Biacore protocol with 70% glycerol. The chip is next equilibrated in PBS for approximately 1 hr at 20,L/min flow rate. The dextran surface of the chip is activated through an NHS/EDC coupling. This coupling is done using an amine coupling kit (Biacore—BR-100-50) containing N-hydroxysuccinimide (NHS 11.5 mg/mL) and N-ethyl-N′-(3-dimethylaminopropyl) carbodiimide hydrochloride (EDC 75 mg/mL). The two reagents are mixed in a 1:1 ratio and 35 μL of the mixture are injected at 5 μL/min. The activated chip is then modified with a cysteine reactive group, to enable labeling of the CM5 chip with cysteine chemistry. A solution of 100 μM MTSL in PBS is injected at 2 μL/min for 10 min over the activated cell.
A peptide that is a nanomolar inhibitor for the protein of interest was synthesized at Synpep, to include a cysteine residue at the N-terminus. This peptide was brought up to a 100 μM solution in PBS. This solution is then injected over the activated cell at 2 μL/min for 10 min. After injection one measures the change in RUs by marking the RUs at t=0 and t=final and subtracting. This gives the total RU change, which is related to the total mass of peptide successfully coupled to the CM5 surface. The sensorgram is then altered to flow across all four cells on the CM5 chip at 5 μL/min PBS. A solution of 1 M ethanolamine hydrochloride-NaOH pH 8.5 (Amine coupling kit, Biacore—BR-100-50) is injected at […] for 7 min. The peptide is immobilized at a density of 40 fmol/mm^2. The chip is equilibrated overnight in PBS+0.05% azide at 20 μL/min.
IL-1 R is expressed in baculovirus-infected TN-5B1-4 insect cells (High Five) and purified using standard procedures. To determine an appropriate constant concentration of protein to use, a protein titration is first performed. A dilution series of the protein is typically performed to produce seven protein solutions having final concentrations of from 300 nM, 100 nM, 33 nM, 11 nM, 3.7 nM, 1.2 nM, and 0.41 nM in PBS+0.05% azide, and an eighth solution is used as a PBS-only baseline. The protein solutions are injected from lowest concentration to highest at 40 μL/min for 1 min. The SPR software method includes a 1 min wash before injection, the injection and then a 3 min wash after the injection.
These dilutions series are analyzed by BIAevaluation software version 3.0. Sensorgrams are plotted for protein binding to the immobilized peptide cell. The sensorgrams are modified by subtracting the sensorgrams for the appropriate protein dilutions over cell 1 (a blank cell). This subtraction step removes any RU changes that might occur due to nonspecific interactions between the protein and the chip itself or refractive changes in the buffer. Finally, the eight sensorgrams produced from the protein dilution series are zeroed at the average of their starting RUs. Then the sensorgram produced by injecting PBS only is subtracted to reveal the final sensorgrams used to determine relative binding.
To determine KdSPR for the protein, the protein concentration is plotted on the X-axis, while the fraction bound at the plateau of the injection is plotted on the Y-axis. The curve is then analyzed via nonlinear regression analysis (Kaleidagraph, Synergy Software). […] One wants to keep protein constant and non-saturated to be assured of not having an excess of protein in solution. For this protein, 30 nM was chosen. […]

T1 sequence (P60568 21-153): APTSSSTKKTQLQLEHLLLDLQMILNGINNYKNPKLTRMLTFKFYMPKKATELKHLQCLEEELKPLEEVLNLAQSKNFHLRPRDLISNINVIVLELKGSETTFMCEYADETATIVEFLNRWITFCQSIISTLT

SMILES: COCC(=O)NC1CSc2ccccc2C1=O (stereo not shown) [Compound 20]
Kd,SPR IL-2 (immobilized IL-2; immobilized IL-2, no other compound): Inactive

SMILES: COCCNC(=O)[C@@H]1CCCN1C(=O)c1cc2ccccc2s1 [Compound 1]
Kd (immobilized IL-2; FIG. 7 sensorgrams, 0-500 μM of compound over immobilized IL-2, read-out: apparent Kd): ~175 µM | IC50 (immobilized IL-2; constant 50 μM of 2c, immobilized IL-2, FIG. 9, read-out: IC50 inhibiting the binding of 2c): 185 µM | Kd (immobilized IL-2; dose-response plot of FIG. 9, absence of 2c, read-out: Kd for binding IL-2): 210 µM

SMILES: NC(=O)CC[C@H](NC(=O)[C@H](Cc1ccc(OP(=O)(O)O)cc1)NC(=O)[C@H](Cc1ccc2ccccc2c1)NC(=O)Cc1ccc(O)cc1)C(=O)N1CCN(C(=O)Cc2ccc(O)cc2)CC1 [Compound 21]
IC50 [1]: 10.5 µM

More lines, now with the values ahead:

IC50 [1]: 560 µM
SMILES: NC(=O)c1cccc(NC(=O)CCC(=O)Nc2ccc3[nH]ccc3c2)c1 [Compound 23]

IC50 [1]: 95 µM
SMILES: NC(=O)Cc1cccc(NC(=O)c2cccc(NC(=O)c3cc4cccc(O)c4cc3O)c2)c1 [Compound 24]

IC50 [1]: 240 µM
SMILES: NC(=O)Cc1ccc(NC(=O)NCc2ccc(C3=CN=C(N)NC3)cc2)cc1 [Compound 25]

IC50SPR ([1]; inhibition of binding of IL-1 R to the immobilized peptide CETPFTWEESNAYYWQPYALPL): Inactive
SMILES: NC(=O)c1cccc(NC(=O)CCC(=O)NCCc2c[nH]c3ccccc23)c1 [Compound 22]

Kd (immobilized IL-2; Example 11, immobilized interleukin-2, read-out: apparent Kd in SPR experiments): 5 µM
SMILES: N=C(N)N[C@@H](C(=O)NCC(=O)N1CCC(c2cc(-c3ccc(O)cc3Cl)[nH]n2)CC1)C1CCCCC1 [Compound 16]

— patent publication US20030186464A1, “Surface plasmon resonance methods” (priority 2002, published 2003)
